Reference: US20190316081A1, “MEDIA AND METHODS FOR EXPANSION OF PLURIPOTENT STEM CELLS” (priority 2018, published 2019)

Experiments:
Format in all cases: cell-based, human
[1] = test system: 5i-hPSC; assay: Medium component screen and PD dose response on OCT4/SOX2 pluripotent phenotype, feeder-free adherent and suspension
Method: For intracellular staining, dissociated cells were fixed with 4% paraformadehyde (Electron Microscopy Sciences) for 10 minutes and permeabilized with 0.1% Triton™ X-100 (Sigma-Aldrich). Cells were then stained with the primary antibody (OCT4, BD Biosciences; SOX2, R&D; FOXA2, Abnova; cTNT, Thermo Fisher Scientific; TUBB3, Cell Signaling; PDX1, R&D; NKX6.1, DSHB) for 25 minutes followed by the secondary antibody for 25 minutes at 4° C. Stained cells were analyzed on a FACSCanto™ II (BD) or FACS Fortessa™ (BD) flow cytometer.
Statistical analysis was performed using the JMP software (SAS). Parametric tests were used for qpcr, doubling time, and maximum density experiments, with the Student's T-test used for 2 treatment experiments and Tukey's HSD test used for experiments with 3 or more treatments. A non-parametric test (Kruskal-Wallis) was used for colony formation experiments since this assay was developed specifically for this study. […] The linear regression model was developed in Excel (Microsoft®).
To test this hypothesis, a 96 well plate platform was designed to screen the effects of medium components on 5i-hPSC pluripotency in suspension cultures and in feeder-free adherent cultures (FIG. 8A). To examine the effects of adherent culture on pluripotency, a Geltrex™ coating was used to obtain an adherent culture condition in the absence of a feeder layer. […]

[2] = test system: PSC (HES2); assay: Orbital shaker suspension culture of PSC aggregates with dextran sulfate; details: for aggregate control properties in PSC: data not shown
Method: In brief, HES2 were cultured on Geltrex™ LDEV-Free Reduced Growth Factor Basement Membrane Matrix (Thermo Fisher Scientific, 1:50 dilution in DMEM) coated plates in Nutristem® hESC XF Culture Medium (Biological Industries, “NS”) or E8 Medium (Thermo Fisher Scientific), supplemented with 1× Penicillin-Streptomycin (Thermo Fisher Scientific). Plates were coated with Geltrex™ for 30 minutes at 37° C. Cells were passaged 1:24 every 6 days by dissociation with TrypLE™ Express (Thermo Fisher Scientific) at 37° C. for 4-5 minutes. All cell line stocks were confirmed negative for mycoplasma contamination. Conversion to a “naïve” hPSC state was performed as described previously^35. Dextran sulfate compounds (DS, Sigma) were prepared by dilution in deionized water at a stock concentration of 100 mg/mL followed by filter sterilization.
(§1) Six well culture plates were pre-coated with 5% Pluronic F-68® (Thermo Fisher Scientific) for 30 minutes at 37° C. or overnight at 4° C. Dissociation of PSC to single cells was carried out by TrypLE™ Express (Thermo Fisher Scientific) treatment for 5 minutes at room temperature. Single cells were seeded into the Pluronic F-68® coated 6-well plates that were then placed on an orbital shaker with 10 μM Y-27632 (Reagents Direct) in normoxic (21% 02) conditions. Cells were seeded at densities of 2×10^5 cells/mL unless otherwise noted. Medium was exchanged by angling the plate at a 45° angle and allowing aggregates to settle onto the bottom edge. Two days after seeding, half of the growth medium was removed and replaced each day. Cells were harvested at the end of culture by dissociation with a 5 minute TrypLE™ treatment at 37° C. and cell counts were performed by Trypan Blue exclusion (Thermo Fisher Scientific). Bioreactor experiments were conducted following manufacturer instructions for operating the Ambr™-24 bioreactor system (Sartorius). Cell dissociation and medium exchange were performed as described above. Bioreactors were operated at 450 rpm and seeded with 4×10^5 cells/mL unless otherwise noted. Aggregates were analyzed using the Mastersizer™ 3000 particle analyzer (Malvern) according to manufacturer's instructions. Unless otherwise noted, the 560 μm aperture was used for analysis. Aggregates were dissociated and seeded into adherent conditions after 3 passages in suspension with DS. Directed differentiation into all three germ layers was performed as described previously for endoderm^40, mesoderm^41, and ectoderm^42 lineages. G-Band karyotyping was performed by WiCell.
Statistical analysis was performed in Excel software (Microsoft®). […] Coefficient of variation was calculated by estimating the volume of each aggregate from its diameter, calculating the standard deviation of each treatment, and normalizing to the mean. […]

[3] = test system: PSC (HES2); assay: Stirred tank bioreactor suspension culture of PSC with dextran sulfate; details: stirred tank bioreactors seeded with DS, 3 passages
Method: as §1, with “Bioreactors were operated at 450 rpm and seeded with 4×10^5 cells/mL unless otherwise noted.” left out, “Unless otherwise noted, the 560 μm aperture was used for analysis. Aggregates were dissociated and seeded into adherent conditions after 3 passages in suspension with DS. Directed differentiation into all three germ layers was performed as described previously for endoderm^40, mesoderm^41, and ectoderm^42 lineages. G-Band karyotyping was performed by WiCell.” left out
Apoptosis analysis was conducted using Annexin V staining. […] Cells were analyzed on a FACS Canto™ II (BD) or FACS Fortessa™ (BD) flow cytometer. […]

[4] = test system: PSC; assay: Karyotype and germ layer differentiation of DS treated PSC
Method: Six well culture plates were pre-coated with 5% Pluronic F-68® (Thermo Fisher Scientific) for 30 minutes at 37° C. or overnight at 4° C. Dissociation of PSC to single cells was carried out by TrypLE™ Express (Thermo Fisher Scientific) treatment for 5 minutes at room temperature. […] Cells were seeded at densities of 2×10^5 cells/mL unless otherwise noted. Medium was exchanged by angling the plate at a 45° angle and allowing aggregates to settle onto the bottom edge. Two days after seeding, half of the growth medium was removed and replaced each day. Cells were harvested at the end of culture by dissociation with a 5 minute TrypLE™ treatment at 37° C. and cell counts were performed by Trypan Blue exclusion (Thermo Fisher Scientific). […] Aggregates were dissociated and seeded into adherent conditions after 3 passages in suspension with DS. Directed differentiation into all three germ layers was performed as described previously for endoderm^40, mesoderm^41, and ectoderm^42 lineages. G-Band karyotyping was performed by WiCell.

[5] = test system: HES2 and H9 cell lines; assay: 4i suspension culture supplemented with dextran sulfate; details: dextran sulfate at seeding
Method: HES2 and H9 hPSC were cultured in adherent conditions in 5i medium for >5 passages. Cells were dissociated with TrypLE™ as described previously and seeded as single cells into 4i medium in the presence of ROCK inhibitor into orbital shaker suspension culture plates (pre-treated with 5% Pluronic® F-68) in the presence of dextran sulfate at seeding. Half of the medium volume was exchanged every day starting on the second day by tilting the plate at a 45 degree angle and allowing cells to settle before removing half of the medium and replenishing it with fresh 4i medium without dextran sulfate.

[6] = test system: H9 hPSC; assay: Aggregation control by DS in conventional and naive conditions; details: conventional and naive pluripotent states

O=C(NOC[C@H](O)CO)c1ccc(F)c(F)c1Nc1ccc(I)cc1F [PD, N-[(2R)-2,3-dihydroxypropoxy]-3,4-difluoro-2-[(2-fluoro-4-iodophenyl)amino]-benzamide]
correlation of PD level to pluripotent phenotype ([1]; feeder-free adherent and suspension): negatively correlated
linear regression coefficient of PD level on OCT4/SOX2 expression ([1]; model with growth format and interaction, 56 observations): −27.0584

heparin
aggregate control properties in PSC [2]: displayed aggregate control properties

pentosan polysulfate
aggregate control properties in PSC [2]: displayed aggregate control properties

dextran sulfate [DS]
homogeneity of aggregate sizes ([2]; orbital shaker, 4 days): reduced standard deviations and lower coefficients of variation of aggregate volume
aggregate diameter ([2]; orbital shaker, DS of 4, 15 and 40 kDa at varied concentration): significantly reduced diameters in a dose-dependent fashion
expression of pluripotency markers Oct4 and Sox2 [3]: > 85%
karyotype ([4]; 9 passages (5 adherent, 4 suspension)): retained a normal karyotype
differentiation to three germ layers ([4]; after 9 passages with DS): maintained the ability to differentiate to cell types from all three germ layers
mean aggregate size and variance relative to untreated conditions [5]: both observed to decrease
control of aggregation [6]: able to control H9 hPSC aggregation in both pluripotent states
